From patent publication US20020035061A1, “COMPOSITIONS AND METHODS FOR TREATING INFECTIONS USING CATIONIC PEPTIDES ALONE OR IN COMBINATION WITH ANTIBIOTICS” (priority 1996, published 2002)
≈ marks a conversion by molar mass, not a printed value. Where two headings read alike, the source gives them in different places.

What was measured:
[1] = Single dose toxicity, intraperitoneal injection, formulations; conditions: mouse, in vivo, ip, outbred ICR mice (Table 32)
Protocol: The single dose toxicity of a cationic peptide and antibiotic agent combination is examined in outbred ICR mice. Intraperitoneal injection of the combination in isotonic saline is carried out at increasing dose levels. The survival of the animals is monitored for 7 days. The number of animals surviving at each dose level is used to determine the maximum tolerated dose (MTD). In addition, the MTD can be determined after administration of the peptide and agent by different routes, at different time points, and in different formulations.

[2] = Cell death by Cytotox (Promega) lactate dehydrogenase release; assay type: cell-based; conditions: LDH release
Protocol: In addition, APO-peptides and parent peptides are tested against a panel of cancer cell lines. Cell death is measured using the Cytotox (Promega) assay kit which measures the release of lactate dehydrogenase.
PBL, peripheral blood lymphocytes; HUVEC, human umbilical vein endothelial cells; H460,non-small lung tumor; K562, chronic myelogenous leukemia; DoHH-2, B-cell cell lymphoma; P388, lymphocytic leukemia; P388ADR, lymphocytic leukemia, multidrug resistant; MCF-7, breast carcinoma; MCF-7ADR, breast carcinoma, multidrug resistant.

[3] = tested on: mammalian red blood cells; conditions: 37° C., 1 hour
Protocol: Candidate cationic peptides may be further tested for their toxicity to normal mammalian cells. An exemplary assay is a red blood cell (RBC) (erythrocyte) hemolysis assay. Briefly, in this assay, red blood cells are isolated from whole blood, typically by centrifugation, and washed free of plasma components. A 5% (v/v) suspension of erythrocytes in isotonic saline is incubated with different concentrations of peptide analogue. […] After incubation for approximately 1 hour at 37° C., the cells are centrifuged, and the absorbance of the supernatant at 540 nm is determined. A relative measure of lysis is determined by comparison to absorbance after complete lysis of erythrocytes using NH4Cl or equivalent (establishing a 100% value). A peptide with <10% lysis at 100 μg/ml is suitable. Preferably, there is <5% lysis at 100 μg/ml. Such peptides that are not lytic, or are only moderately lytic, are desirable and suitable for further screening.
Cationic peptides are tested for toxicity towards eukaryotic cells by measuring the extent of lysis of mammalian red blood cells (RBC). Briefly, in this assay, red blood cells are separated from whole blood by centrifugation and washed free of plasma components. A 5% (v/v) washed red blood cell suspension is prepared in isotonic saline. An aliquot of peptide in formulation is then added and mixed in. After incubation at 37° C. for 1 hour with constant agitation, the solution is centrifuged and the supernatant measured for absorbance at 540 nm to detect released hemoglobin.
A combination of cationic peptide and antibiotic agent is tested for toxicity towards eukaryotic cells by measuring the extent of lysis of mammalian red blood cells. Briefly, red blood cells are separated from whole blood by centrifugation, washed free of plasma components, and resuspended to a 5% (v/v) suspension in isotonic saline. […] Following incubation with constant agitation at 37° C. for 1 hour, the solution is centrifuged, and the absorbance of the supernatant is measured at 540 nm, which detects released hemoglobin. […]

CC[C@H](C)[C@H](NC(=O)[C@H](CC(C)C)NC(=O)[C@H](C)NC(=O)[C@@H]1CCCN1C(=O)[C@H](CC(C)C)NC(=O)CNC(=O)[C@@H](NC(=O)[C@@H](NC(=O)[C@H](CC(C)C)NC(=O)[C@@H](NC(=O)[C@H](CCCCN)NC(=O)[C@H](CCCCN)NC(=O)[C@@H](NC(=O)[C@H](C)NC(=O)[C@@H](NC(=O)[C@@H](NC(=O)[C@H](CC(C)C)NC(=O)[C@H](CCCCN)NC(=O)[C@H](CCCCN)NC(=O)[C@@H](NC(=O)[C@H](Cc1ccccc1)NC(=O)[C@H](CO)NC(=O)[C@H](CCCCN)NC(=O)[C@H](Cc1c[nH]c2ccccc12)NC(=O)[C@@H](N)CCCCN)[C@@H](C)CC)[C@@H](C)O)[C@@H](C)O)C(C)C)C(C)C)[C@@H](C)O)[C@@H](C)O)C(=O)N[C@@H](CO)C(=O)O [MBI 29]
MTD at 7 days [1]: 24 mg/kg
CC50 ([2]; DoHH-2 B-cell lymphoma cells, read-out: LC50 ± S.E., DoHH-2): 2.1 ± 0.5 µg/mL (≈ 0.731 µM)
CC50 ([2]; H460 non-small lung tumor cells, read-out: LC50 ± S.E., H460): 12.6 ± 10 µg/mL (≈ 4.39 µM)
CC50 ([2]; K562, read-out: LC50 ± S.E., K562): 1 µg/mL (≈ 0.348 µM)
CC50 ([2]; MCF-7ADR multidrug resistant breast carcinoma cells, read-out: LC50 ± S.E., MCF-7 ADR): 3.2 ± 1 µg/mL (≈ 1.11 µM)
CC50 ([2]; MCF-7 breast carcinoma cells, read-out: LC50 ± S.E., MCF-7): 4 ± 2 µg/mL (≈ 1.39 µM)
CC50 ([2]; P388, read-out: LC50 ± S.E., P388): 1.4 ± 0.5 µg/mL (≈ 0.487 µM)
CC50 ([2]; P388 ADR, read-out: LC50 ± S.E., P388 ADR): 2 ± 0.2 µg/mL (≈ 0.696 µM)
CC50 ([2]; PBL, peripheral blood lymphocytes, read-out: LC50 ± S.E., PBL): 12 ± 10 µg/mL (≈ 4.18 µM)
CC50 ([2]; human, human umbilical vein endothelial cells (HUVEC), read-out: LC50 ± S.E., HUVEC): 10 µg/mL (≈ 3.48 µM)
% Lysis [3]: 1.9%
